According to PubChem BioAssay AID1963853 (Molecular Pharmacology Branch, DTP, NCI, 2024):

Tested on: 266295-075-R-J1-PDC spheroid viability
Test: Anticancer human tumor 266295-075-R-J1-PDC patient-derived head and neck squamous carcinoma cell line growth inhibition [POLQ]
Settings: spheroids with HUVEC and MSC; for IC50: curve of first compound; for viability, T/C: stronger effect = lower value
Procedure, shortened: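 PDC + HUVEC + MSC complex spheroids; POLQ inhibitors ± partner drugs; top conc. at/near clinical Cmax, else 10 microM (SN-38 1 microM), half-log dilutions; 37 degrees C, 5% CO2.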

[1] = second compound 0.0316 µM, first compound 0.0316 µM
[2] = second compound 0.0316 µM, first compound 0.1 µM
[3] = second compound 0.0316 µM, first compound 0.316 µM
[4] = second compound 0.0316 µM, first compound 1 µM
[5] = second compound 0.0316 µM, first compound 3.16 µM
[6] = second compound 0.0316 µM, first compound 10 µM
[7] = second compound 0.1 µM, first compound 0.0316 µM
[8] = second compound 0.1 µM, first compound 0.1 µM
[9] = second compound 0.1 µM, first compound 0.316 µM
[10] = second compound 0.1 µM, first compound 1 µM
[11] = second compound 0.1 µM, first compound 3.16 µM
[12] = second compound 0.1 µM, first compound 10 µM
[13] = second compound 0.316 µM, first compound 0.0316 µM
[14] = second compound 0.316 µM, first compound 0.1 µM
[15] = second compound 0.316 µM, first compound 0.316 µM
[16] = second compound 0.316 µM, first compound 1 µM
[17] = second compound 0.316 µM, first compound 3.16 µM
[18] = second compound 0.316 µM, first compound 10 µM
[19] = second compound 1 µM, first compound 0.0316 µM
[20] = second compound 1 µM, first compound 0.1 µM
[21] = second compound 1 µM, first compound 0.316 µM
[22] = second compound 1 µM, first compound 1 µM
[23] = second compound 1 µM, first compound 3.16 µM
[24] = second compound 1 µM, first compound 10 µM
[25] = second compound 3.16 µM, first compound 0.0316 µM
[26] = second compound 3.16 µM, first compound 0.1 µM
[27] = second compound 3.16 µM, first compound 0.316 µM
[28] = second compound 3.16 µM, first compound 1 µM
[29] = second compound 3.16 µM, first compound 3.16 µM
[30] = second compound 3.16 µM, first compound 10 µM
[31] = second compound 10 µM, first compound 0.0316 µM
[32] = second compound 10 µM, first compound 0.1 µM
[33] = second compound 10 µM, first compound 0.316 µM
[34] = second compound 10 µM, first compound 1 µM
[35] = second compound 10 µM, first compound 3.16 µM
[36] = second compound 10 µM, first compound 10 µM
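Note: spheroids exposed to compounds for seven days before readout.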

Work on C#Cc1c(F)ccc2cc(O)cc(-c3ncc4c(N5CC6CCC(C5)N6)nc(OCC56CCCN5CC(F)C6)nc4c3F)c12 (stereo unspecified) + Nc1ccc(C#CCN(C(=O)Cc2ncc(C(F)(F)F)cc2C(F)(F)F)c2ccc(F)cc2)nn1 yielded an IC50 (second compound 0.0316 µM) greater than 10 µM, an IC50 (second compound 0.1 µM) of 7.4 µM and an IC50 (second compound 0.316 µM) of 8.3 µM. For the same compound, the IC50 (second compound 1 µM) was greater than 10 µM, the IC50 (second compound 3.16 µM) was greater than 10 µM and the IC50 (second compound 10 µM) was greater than 10 µM. The viability, T/C [1] was 86.8%, the viability, T/C [2] was 89% and the viability, T/C [3] was 82.9%. The viability, T/C [4] was 71.6%, the viability, T/C [5] was 60.8% and the viability, T/C [6] was 50%. The viability, T/C [7] was 90.2%, the viability, T/C [8] was 103% and the viability, T/C [9] was 75.2%. The viability, T/C [10] was 81%, the viability, T/C [11] was 67% and the viability, T/C [12] was 43.7%. It also gave a viability, T/C [13] of 89.2%, a viability, T/C [14] of 71.7% and a viability, T/C [15] of 63%. It also gave a viability, T/C [16] of 84.1%, a viability, T/C [17] of 60.7% and a viability, T/C [18] of 47.3%. The viability, T/C [19] was 114%, the viability, T/C [20] was 84% and the viability, T/C [21] was 70.7%. For the same compound, the viability, T/C [22] was 68.3%, the viability, T/C [23] was 56.9% and the viability, T/C [24] was 54.7%. The viability, T/C [25] was 80.8%, the viability, T/C [26] was 90.6% and the viability, T/C [27] was 74.7%. The viability, T/C [28] was 68.7%, the viability, T/C [29] was 71.6% and the viability, T/C [30] was 64.1%. The viability, T/C [31] was 91.8%, the viability, T/C [32] was 73.9% and the viability, T/C [33] was 82.5%. For the same compound, the viability, T/C [34] was 63.8%, the viability, T/C [35] was 64.1% and the viability, T/C [36] was 52.4%.

With C=CC(=O)N1CCN(c2nc(=O)n(-c3c(C)ccnc3C(C)C)c3nc(-c4c(O)cccc4F)c(F)cc23)C(C)C1 (stereo unspecified) + Nc1ccc(C#CCN(C(=O)Cc2ncc(C(F)(F)F)cc2C(F)(F)F)c2ccc(F)cc2)nn1 the IC50 (second compound 0.0316 µM) was greater than 10 µM, the IC50 (second compound 0.1 µM) was greater than 10 µM and the IC50 (second compound 0.316 µM) was greater than 10 µM. It also gave an IC50 (second compound 1 µM) greater than 10 µM, an IC50 (second compound 3.16 µM) greater than 10 µM and an IC50 (second compound 10 µM) greater than 10 µM. The viability, T/C [1] was 108%, the viability, T/C [2] was 96.4% and the viability, T/C [3] was 101%. For the same compound, the viability, T/C [4] was 96.8%, the viability, T/C [5] was 112% and the viability, T/C [6] was 107%. For the same compound, the viability, T/C [7] was 96%, the viability, T/C [8] was 106% and the viability, T/C [9] was 100%. For the same compound, the viability, T/C [10] was 111%, the viability, T/C [11] was 108% and the viability, T/C [12] was 112%. It also gave a viability, T/C [13] of 89.8%, a viability, T/C [14] of 107% and a viability, T/C [15] of 90.6%. It also gave a viability, T/C [16] of 107%, a viability, T/C [17] of 145% and a viability, T/C [18] of 125%. The viability, T/C [19] was 101%, the viability, T/C [20] was 95.5% and the viability, T/C [21] was 133%. The viability, T/C [22] was 101%, the viability, T/C [23] was 124% and the viability, T/C [24] was 73.9%. For the same compound, the viability, T/C [25] was 98.4%, the viability, T/C [26] was 93.8% and the viability, T/C [27] was 94.2%. The viability, T/C [28] was 108%, the viability, T/C [29] was 117% and the viability, T/C [30] was 103%. It also gave a viability, T/C [31] of 106%, a viability, T/C [32] of 72.8% and a viability, T/C [33] of 92.3%. It also gave a viability, T/C [34] of 106%, a viability, T/C [35] of 105% and a viability, T/C [36] of 108%.

Work on CC1COCCN1c1cc(-c2ccnn2C)c2ccnc(-c3ccn[nH]3)c2n1 (stereo unspecified) + Nc1ccc(C#CCN(C(=O)Cc2ncc(C(F)(F)F)cc2C(F)(F)F)c2ccc(F)cc2)nn1 yielded an IC50 (second compound 0.0316 µM) of 3.04 µM, an IC50 (second compound 0.1 µM) of 2.55 µM and an IC50 (second compound 0.316 µM) of 0.284 µM. It also gave an IC50 (second compound 1 µM) of 1.29 µM, an IC50 (second compound 3.16 µM) of 2.02 µM and an IC50 (second compound 10 µM) of 1.14 µM. The viability, T/C [1] was 92.3%, the viability, T/C [2] was 73.2% and the viability, T/C [3] was 78%. For the same compound, the viability, T/C [4] was 63.6%, the viability, T/C [5] was 46.9% and the viability, T/C [6] was 36.5%. For the same compound, the viability, T/C [7] was 92.1%, the viability, T/C [8] was 84.4% and the viability, T/C [9] was 69.1%. The viability, T/C [10] was 57.5%, the viability, T/C [11] was 52.2% and the viability, T/C [12] was 34.3%. For the same compound, the viability, T/C [13] was 90.2%, the viability, T/C [14] was 86.1% and the viability, T/C [15] was 44.8%. It also gave a viability, T/C [16] of 55.6%, a viability, T/C [17] of 42.3% and a viability, T/C [18] of 42.5%. The viability, T/C [19] was 85%, the viability, T/C [20] was 76.3% and the viability, T/C [21] was 59.1%. It also gave a viability, T/C [22] of 52.1%, a viability, T/C [23] of 46.2% and a viability, T/C [24] of 26.8%. It also gave a viability, T/C [25] of 103%, a viability, T/C [26] of 83.8% and a viability, T/C [27] of 74%. The viability, T/C [28] was 60.7%, the viability, T/C [29] was 43.1% and the viability, T/C [30] was 30.7%. It also gave a viability, T/C [31] of 97.2%, a viability, T/C [32] of 91.9% and a viability, T/C [33] of 69.5%. The viability, T/C [34] was 54.7%, the viability, T/C [35] was 35.8% and the viability, T/C [36] was 35.6%.
